Source: patent US20020151734A1, “12-HETrE analogs and methods of use thereof” (priority 2001, published 2002)
*1 amine or outer side, *2 acyl side, *3 side chain or, on linkers, in order; H or OH if unused. Where a SMILES comes first, the peptide text is derived from it. Bridges are numbered along the chain shown (N, C = ends). Roman numbers before positions name the chains, in order. [ ]: non-standard residue; d: D form. Actinocin(9to1) = Cc1c2oc3c(C)ccc(C(=O)[*:1])c3nc-2c(C(=O)[*:2])c(N)c1=O; NMeV = CN[C@H](C(=O)O)C(C)C; Sar = CNCC(=O)O

Columns and labels:
[1] = test system: RLME cells; experiment: Inhibition of [^3H]12(R)-HETrE binding to RLME cells; details: analog 1 μM; for % Inhibition of [^3H]12(R)-HETrE binding: [^3H]12(R)-HETrE at 10 nM, RLME cells; for Result (agonist or antagonist): classed from % inhibition of [^3H]12(R)-HETrE binding
Procedure: Alternatively, the antagonistic or agonistic activity of 12-HETrE analogs may be measured by determining the percentage of inhibition of [^3H]12(R)-HETrE binding at 10 nM to RLME cells. Generally, inhibition of [^3H]12(R)-HETrE binding greater than 50% is indicative of agonists and inhibition lower than 50% is indicative of antagonists.

[2] = test system: VEGF mRNA; experiment: VEGF mRNA levels in microvessel endothelial (RLMVE) cells by slot blot analysis; format: cell-based; details: for effect on 12(R)-HETrE-induced VEGF mRNA/expression: co-incubation with 12(R)-HETrE
Procedure: The antagonistic or agonistic activity of 12-HETrE analogs may be measured by measuring increases in vascular cadothelial growth factor (VEGF) mRNA following incubation of microvessel endothelial cells (RLMVE cells) with 12(R)-HETrE and other compounds followed by slot blot analysis, as described in the Examples. […] In this way the 12-HETrE analogs 8-(R) and 8-(S) were determined to be 12(R)-HETrE agonists.
12(R)-HETrE increased VEGF mRNA levels in a time-dependent manner. A 5-fold increase over the control levels was observed 45 min after addition of 12(R)-HETrE. These levels gradually declined to the control levels by 48 h. […] 12(R)-HETrE increased VEGF mRNA in a concentration-dependent manner with 0.1 nM having the maximal effect.
Human VEGF cDNA was used as a probe for slot blot analysis to measure increases in VEGF mRNA following incubation of RLMVE cells with 12(R)-HETrE and 12-HETrE analogs. To measure agonistic activity compounds were added to the incubation medium at concentration of 0.1, 1, and 10 nM and their effect on VEGF mRNA levels after 45 min incubation was measured in comparison to that of 12(R)-HETrE at the same concentration. To measure antagonistic activity, compounds at the above concentrations were added with 0.1 nM 12(R)-HETrE and 45 min later RNA extracted samples were processed for slot blot analysis.

SMILES: CCCCC/C=C\C[C@H](O)CC/C=C\C/C=C\CCCC(=O)NS(C)(=O)=O [1-a-(R), N-(Methylsulfonyl)-12(R)-hydroxyeicosa-5(Z),8(Z),14(Z)-trienamide]
- % Inhibition of [^3H]12(R)-HETrE binding [1]: 62.6%
- Result (agonist or antagonist) [1]: Agonist (inhibition of [^3H]12(R)-HETrE binding greater than 50% is indicative of agonists)

SMILES: CCCCC/C=C\C[C@@H](O)CC/C=C\C/C=C\CCCC(=O)NS(C)(=O)=O [1-a-(S), N-(Methylsulfonyl)-12(S)-hydroxyeicosa-5(Z),8(Z),14(Z)-trienamide]
- increase in VEGF mRNA (densitometry) ([2]; 1 nM, 45 min incubation): 5 fold
- agonistic activity by VEGF mRNA increase ([2]; slot blot analysis): significant agonistic activity
- % Inhibition of [^3H]12(R)-HETrE binding [1]: 33.3%
- Result (agonist or antagonist) [1]: Antagonist (inhibition lower than 50% is indicative of antagonists)

SMILES: CCCCC/C=C\C[C@@H](CC/C=C\C/C=C\CCCC(=O)O)OC [2-(R), 12(R)-Methoxyeicosa-5(Z),8(Z),14(Z)-trienoic acid]
- % Inhibition of [^3H]12(R)-HETrE binding [1]: 38.6%
- Result (agonist or antagonist) [1]: Antagonist (inhibition lower than 50% is indicative of antagonists)

SMILES: CCCCC/C=C\C[C@H](CC/C=C\C/C=C\CCCC(=O)O)OC [2-(S), 12(S)-Methoxyeicosa-5(Z),8(Z),14(Z)-trienoic acid]
- % Inhibition of [^3H]12(R)-HETrE binding [1]: 34.2%
- Result (agonist or antagonist) [1]: Antagonist (inhibition lower than 50% is indicative of antagonists)

SMILES: CCCCC/C=C\C[C@H](O)CC/C=C\CC#CCCCC(=O)O [3-(R), 12(R)-hydroxyeicosa-8(Z),14(Z)-dien-5-ynoic acid]
- % Inhibition of [^3H]12(R)-HETrE binding [1]: 58.1%
- Result (agonist or antagonist) [1]: Agonist (inhibition of [^3H]12(R)-HETrE binding greater than 50% is indicative of agonists)

SMILES: CCCCC/C=C\C[C@@H](O)CC/C=C\CC#CCCCC(=O)O [3-(S), 12(S)-Hydroxyeicosa-8(Z),14(Z)-dien-5-ynoic acid]
- % Inhibition of [^3H]12(R)-HETrE binding [1]: 23.6%
- Result (agonist or antagonist) [1]: Antagonist (inhibition lower than 50% is indicative of antagonists)

SMILES: CCCCC/C=C\C[C@H](O)CC/C=C\C/C=C\COCC(=O)O [4-a-(R), (9(R)-Hydroxyheptadeca-2(Z),5(Z),11(Z)-trienyloxy)acetic acid]
- % Inhibition of [^3H]12(R)-HETrE binding [1]: 48.0%
- Result (agonist or antagonist) [1]: Antagonist (inhibition lower than 50% is indicative of antagonists)

SMILES: CCCCC/C=C\C[C@@H](O)CC/C=C\C/C=C\COCC(=O)O [4-a-(S)]
- % Inhibition of [^3H]12(R)-HETrE binding [1]: 24.3%
- Result (agonist or antagonist) [1]: Antagonist (inhibition lower than 50% is indicative of antagonists)

SMILES: CCCCC/C=C\C[C@H](O)CC/C=C\CCCCCCC(=O)O [5-(R), 12(R)-Hydroxyeicosa-8(Z),14(Z)-dienoic acid]
- % Inhibition of [^3H]12(R)-HETrE binding [1]: 92.4%
- Result (agonist or antagonist) [1]: Agonist (inhibition of [^3H]12(R)-HETrE binding greater than 50% is indicative of agonists)

SMILES: CCCCC/C=C\C[C@@H](O)CC/C=C\CCCCCCC(=O)O [5-(S), 12(S)-Hydroxyeicosa-8(Z),14(Z)-dienoic acid]
- % Inhibition of [^3H]12(R)-HETrE binding [1]: 54.5%
- Result (agonist or antagonist) [1]: Agonist (inhibition of [^3H]12(R)-HETrE binding greater than 50% is indicative of agonists)

SMILES: CCCCCCCC[C@@H](O)CC/C=C\C/C=C\CCCC(=O)O [6-(R), 12(R)-Hydroxyeicosa-5(Z),8(Z)-dienoic acid]
- % Inhibition of [^3H]12(R)-HETrE binding [1]: 87.2%
- Result (agonist or antagonist) [1]: Agonist (inhibition of [^3H]12(R)-HETrE binding greater than 50% is indicative of agonists)

SMILES: CCCCCCCC[C@H](O)CC/C=C\C/C=C\CCCC(=O)O [6-(S), 12(S)-Hydroxyeicosa-5(Z),8(Z)-dienoic acid]
- % Inhibition of [^3H]12(R)-HETrE binding [1]: 73.0%
- Result (agonist or antagonist) [1]: Agonist (inhibition of [^3H]12(R)-HETrE binding greater than 50% is indicative of agonists)

SMILES: CCCCC/C=C\C[C@H](O)CCCCC/C=C\CCCC(=O)O [7-(R), 12(R)-Hydroxy-eicosa-5(Z),14(Z)-dienoic acid]
- % Inhibition of [^3H]12(R)-HETrE binding [1]: 88.7%
- Result (agonist or antagonist) [1]: Agonist (inhibition of [^3H]12(R)-HETrE binding greater than 50% is indicative of agonists)

SMILES: CCCCC/C=C\C[C@@H](O)CCCCC/C=C\CCCC(=O)O [7-(S), 12(S)-Hydroxyeicosa-5,(Z)14(Z)-dienoic acid]
- % Inhibition of [^3H]12(R)-HETrE binding [1]: 69.5%
- Result (agonist or antagonist) [1]: Agonist (inhibition of [^3H]12(R)-HETrE binding greater than 50% is indicative of agonists)

SMILES: CCCCCC=CC[C@H](O)CCC=CCC=CCCCC(=O)O [12(R)-HETrE, 12(R)-hydroxy-5,8,14-eicosatrienoic acid]
- time by which VEGF mRNA levels declined to the control levels ([2]; 0.1 nM): ≤ 48 h
- increase in VEGF mRNA over the control levels ([2]; 0.1 nM, 45 min after addition): 5 fold
- concentration having the maximal effect on VEGF mRNA ([2]; concentration-dependent increase): 0.1 nM
- % Inhibition of [^3H]12(R)-HETrE binding [1]: 69.8%

SMILES: CCCCC/C=C\C[C@@H](O)CC/C=C\C/C=C\CCCC(=O)O [12(S)-HETrE, 12(S)-(5Z,8Z,14Z)-12-hydroxyeicosa-5,8,14-trienoic acid, reference compound]
- % Inhibition of [^3H]12(R)-HETrE binding [1]: 62.4%
- Result (agonist or antagonist) [1]: Agonist (inhibition of [^3H]12(R)-HETrE binding greater than 50% is indicative of agonists)

SMILES: Cc1c2oc3c(C)ccc(C(=O)N[C@@H]4C(=O)N[C@H](C(C)C)C(=O)N5CCC[C@H]5C(=O)N(C)CC(=O)N(C)[C@@H](C(C)C)C(=O)O[C@@H]4C)c3nc-2c(C(=O)N[C@@H]2C(=O)N[C@H](C(C)C)C(=O)N3CCC[C@H]3C(=O)N(C)CC(=O)N(C)[C@@H](C(C)C)C(=O)O[C@@H]2C)c(N)c1=O [actinomycin D] (I: T[dV]P[Sar][NMeV] / II: T[dV]P[Sar][NMeV]; ester I:1-I:C, II:1-II:C; linker I:N-II:N via Actinocin(9to1))
- effect on 12(R)-HETrE-induced VEGF mRNA/expression [2]: abolished

SMILES: C[C@@H]1C[C@@H]([C@H](O)CC2CC(=O)NC(=O)C2)C(=O)[C@@H](C)C1 [cycloheximide]
- effect on 12(R)-HETrE-induced VEGF mRNA/expression [2]: did not affect
